Like-named read-outs stand apart in the source and are kept apart here.

The text below walks through data of patent US8536168B2 (Novartis AG, priority 2007, dated 2013).

One assay concerns Gli-luciferase activity. As to the kind of experiment: Reporter gene assay (RGA) in TMHh12 cells, antagonism of Gli-luciferase activity in the presence of a Smo agonist. The format is cell-based. Here is the method: Activity of the compounds was evaluated using a reporter gene assay (RGA) in TMHh12 cells.
On the technique in general: A reporter such as luciferase makes a cellular process visible.

In assay [1] the target is mouse Smoothened receptor (Mus musculus, UniProt P56726). As to the kind of experiment: Smo binding assay, displacement of radio-labeled smoothened agonist, filter binding format (mouse). To be noted: displacement of small molecule agonist of Smoothened, read-out: Mouse Smo bdg., IC50. The text has this: A Smo binding assay was developed using radio-labeled smoothened agonist for compound competition.
Sequence of mouse Smoothened receptor (P56726 33-793): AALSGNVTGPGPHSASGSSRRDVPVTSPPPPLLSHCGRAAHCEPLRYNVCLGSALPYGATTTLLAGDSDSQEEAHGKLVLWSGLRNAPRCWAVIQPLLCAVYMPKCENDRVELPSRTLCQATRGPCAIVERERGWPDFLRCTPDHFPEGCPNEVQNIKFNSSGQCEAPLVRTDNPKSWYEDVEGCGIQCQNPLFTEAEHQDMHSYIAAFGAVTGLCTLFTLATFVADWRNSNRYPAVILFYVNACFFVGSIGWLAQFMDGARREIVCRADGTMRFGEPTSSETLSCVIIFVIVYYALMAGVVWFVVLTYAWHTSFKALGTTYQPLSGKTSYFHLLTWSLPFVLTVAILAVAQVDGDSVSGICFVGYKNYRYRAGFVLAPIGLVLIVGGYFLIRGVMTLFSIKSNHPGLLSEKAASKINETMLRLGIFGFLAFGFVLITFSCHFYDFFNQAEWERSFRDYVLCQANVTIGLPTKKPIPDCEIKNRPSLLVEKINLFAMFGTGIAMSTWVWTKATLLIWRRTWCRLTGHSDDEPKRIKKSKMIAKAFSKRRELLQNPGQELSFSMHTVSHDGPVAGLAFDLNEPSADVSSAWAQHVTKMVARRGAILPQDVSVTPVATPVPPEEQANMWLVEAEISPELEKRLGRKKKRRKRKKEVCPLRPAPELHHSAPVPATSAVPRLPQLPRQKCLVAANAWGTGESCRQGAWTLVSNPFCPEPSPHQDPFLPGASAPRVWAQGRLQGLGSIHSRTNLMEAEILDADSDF

Assay [2] deals with human Smoothened receptor (Homo sapiens, UniProt Q99835). As to the kind of experiment: Smo binding assay, displacement of radio-labeled smoothened agonist, filter binding format (human). Particulars: displacement of small molecule agonist of Smoothened, read-out: Human Smo bdg., IC50. The text has this: A Smo binding assay was developed using radio-labeled smoothened agonist for compound competition. Table 9 lists the IC50 for displacement of a small molecule agonist of Smoothened determined in a filter binding format for the mouse and human Smoothened receptor.
Sequence of human Smoothened receptor (Q99835 28-787): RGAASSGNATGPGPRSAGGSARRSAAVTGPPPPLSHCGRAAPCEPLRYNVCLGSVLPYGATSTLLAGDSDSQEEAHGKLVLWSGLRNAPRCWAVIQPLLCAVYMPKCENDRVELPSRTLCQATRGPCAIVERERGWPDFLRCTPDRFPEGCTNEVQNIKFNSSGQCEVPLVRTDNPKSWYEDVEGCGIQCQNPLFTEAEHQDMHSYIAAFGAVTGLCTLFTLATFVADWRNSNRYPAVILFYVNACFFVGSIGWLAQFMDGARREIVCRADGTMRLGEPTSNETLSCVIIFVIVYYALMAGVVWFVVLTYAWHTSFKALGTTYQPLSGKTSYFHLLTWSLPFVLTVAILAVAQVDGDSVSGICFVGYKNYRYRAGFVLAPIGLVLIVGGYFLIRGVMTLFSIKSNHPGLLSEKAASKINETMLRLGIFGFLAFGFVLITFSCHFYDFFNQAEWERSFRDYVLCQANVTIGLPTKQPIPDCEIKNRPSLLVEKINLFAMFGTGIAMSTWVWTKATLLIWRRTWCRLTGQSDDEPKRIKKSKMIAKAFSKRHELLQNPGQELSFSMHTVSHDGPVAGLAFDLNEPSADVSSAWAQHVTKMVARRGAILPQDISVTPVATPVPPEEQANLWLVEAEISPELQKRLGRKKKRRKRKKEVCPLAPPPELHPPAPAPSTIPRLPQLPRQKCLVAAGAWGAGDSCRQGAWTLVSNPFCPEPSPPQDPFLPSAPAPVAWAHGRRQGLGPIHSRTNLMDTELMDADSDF

Setting [3] is: 25 nM small molecule Smo agonist, read-out: RGA (25 nM Smo agonist) IC50.
The mark [4] stands for this setting: read-out: RGA (1 nM Smo agonist) IC50, 1 nM small molecule Smo agonist.

Take `FC(F)(F)c1c[nH]c(C2CCN(c3nnc(Cc4ccccc4)c4ccccc34)CC2)n1` [Example 112]: the IC50 was 100 to 1000 nM in the assay on Gli-luciferase activity (setting [3]), less than 100 nM with Gli-luciferase activity (setting [4]), less than 100 nM in assay [1] and 100 to 1000 nM in assay [2].
`c1ccc(Cc2nnc(N3CCC(c4c[nH]c5ccccc45)CC3)c3ccccc23)cc1` [Example 113]: the 50% inhibitory concentration (IC50) in the assay on Gli-luciferase activity (setting [3]) was in the range of 1000 to 10000 nM; in the assay on Gli-luciferase activity (setting [4]), 100 to 1000 nM; in assay [1], 100 to 1000 nM; in assay [2], 100 to 1000 nM.
Turning to `c1ccc(Cc2nnc(N3CCC(c4nc5ccccc5[nH]4)CC3)c3ccccc23)cc1` [Example 114], the IC50 in the assay with Gli-luciferase activity (setting [3]) is 100 to 1000 nM; in the assay with Gli-luciferase activity (setting [4]), less than 100 nM; in assay [1], less than 100 nM; in assay [2] it was less than 100 nM.
For the molecule `COC(=O)c1ccc(C2CCN(c3nnc(Cc4ccccc4)c4ccccc34)CC2)cc1` [Example 115], the IC50 (in the assay on Gli-luciferase activity (setting [3]); in the assay on Gli-luciferase activity (setting [4]); in assay [1]; in assay [2]) was 1000 to 10000 nM throughout.
`N#Cc1ccc(C2CCN(c3nnc(Cc4ccccc4)c4ccccc34)CC2)cc1` [Example 116]: the IC50 (with Gli-luciferase activity (setting [3]); with Gli-luciferase activity (setting [4]); in assay [1]; in assay [2]) was 1000 to 10000 nM in each case.
Regarding `C[C@H]1CN(c2ccc(C#N)cn2)CCN1c1nnc(Cc2ccccc2)c2ccccc12` [Example 117], the IC50 is 100 to 1000 nM in the assay with Gli-luciferase activity (setting [3]), less than 100 nM in the assay on Gli-luciferase activity (setting [4]), less than 100 nM in assay [1] and less than 100 nM in assay [2].
Turning to `C[C@@H]1CN(c2ccc(C#N)cn2)CCN1c1nnc(Cc2ccccc2)c2ccccc12` [Example 118], the IC50 with Gli-luciferase activity (setting [3]) lay within 1000 to 10000 nM; in the assay with Gli-luciferase activity (setting [4]) it was 100 to 1000 nM; in assay [1] it was 100 to 1000 nM; in assay [2] it was 100 to 1000 nM.
`C[C@@H]1CN(c2nnc(Cc3ccccc3)c3ccccc23)[C@@H](C)CN1c1ccc(C#N)cn1` [Example 119]: the IC50 lay within 1000 to 10000 nM with Gli-luciferase activity (setting [3]), 100 to 1000 nM with Gli-luciferase activity (setting [4]), 100 to 1000 nM in assay [1] and 100 to 1000 nM in assay [2].
On to `CC(C)(N)c1ccc(N2CCN(c3nnc(Cc4ccccc4)c4ccccc34)CC2)nc1` [Example 120, 2-(6-(4-(4-Benzylphthalazin-1-yl)piperazin-1-yl)pyridin-3-yl)propan-2-amine], for which the concentration for half-maximal inhibition (IC50) (in the assay with Gli-luciferase activity (setting [3]); in the assay on Gli-luciferase activity (setting [4]); in assay [1]; in assay [2]) was less than 100 nM each time.
Consider `COCC(=O)NC(C)(C)c1ccc(N2CCN(c3nnc(Cc4ccccc4)c4ccccc34)CC2)nc1` [Example 121, N-(2-(6-(4-(4-Benzylphthalazin-1-yl)piperazin-1-yl)pyridin-3-yl)propan-2-yl)-2-methoxyacetamide], for which the IC50 (with Gli-luciferase activity (setting [3]); in the assay on Gli-luciferase activity (setting [4]); in assay [1]; in assay [2]) was less than 100 nM each time.
In the case of `COCCC(=O)NC(C)(C)c1ccc(N2CCN(c3nnc(Cc4ccccc4)c4ccccc34)CC2)nc1` [Example 122], the IC50 in the assay with Gli-luciferase activity (setting [3]) was 100 to 1000 nM; in the assay on Gli-luciferase activity (setting [4]) it was less than 100 nM; in assay [1], less than 100 nM; in assay [2], 100 to 1000 nM.
Regarding `CC(C)(NC(=O)OCc1ccccc1)c1ccc(N2CCN(c3nnc(Cc4ccccc4)c4ccccc34)CC2)nc1` [Example 123], the IC50 with Gli-luciferase activity (setting [3]) is 100 to 1000 nM; with Gli-luciferase activity (setting [4]) it was less than 100 nM; in assay [1], less than 100 nM; in assay [2], less than 100 nM.
In the case of `CC(C)(O)c1ccc(C2CCN(c3nnc(Cc4ccccc4)c4ccccc34)CC2)cc1` [Example 124], the IC50 in the assay on Gli-luciferase activity (setting [3]) was 1000 to 10000 nM; with Gli-luciferase activity (setting [4]) it was less than 100 nM; in assay [1], 100 to 1000 nM; in assay [2], 100 to 1000 nM.
Take `NCc1ccc(C2CCN(c3nnc(Cc4ccccc4)c4ccccc34)CC2)cc1` [Example 125, 4-[1-(4-Benzyl-phthalazine-1-yl)-piperidine-4-yl]-benzylamine]: the IC50 with Gli-luciferase activity (setting [3]) lay within 1000 to 10000 nM; in the assay on Gli-luciferase activity (setting [4]), 100 to 1000 nM; in assay [1], 100 to 1000 nM; in assay [2], 1000 to 10000 nM.
Turning to `CC(=O)Nc1ccc(C2CCN(c3nnc(Cc4ccccc4)c4ccccc34)CC2)cc1` [Example 129], the IC50 fell in the range of 1000 to 10000 nM in the assay on Gli-luciferase activity (setting [3]), 100 to 1000 nM in the assay with Gli-luciferase activity (setting [4]), 100 to 1000 nM in assay [1] and 1000 to 10000 nM in assay [2].
Turning to `Cc1nc(N2CCN(c3nnc(Cc4ccccc4)c4ccccc34)CC2)ccc1C#N` [Example 130], the IC50 with Gli-luciferase activity (setting [3]) was 1000 to 10000 nM; with Gli-luciferase activity (setting [4]) it was 100 to 1000 nM; in assay [1], 1000 to 10000 nM; in assay [2], 1000 to 10000 nM.
In the case of `O=C1CCCN1c1ccc(N2CCN(c3nnc(Cc4ccccc4)c4ccccc34)CC2)nc1` [Example 131], the IC50 in the assay with Gli-luciferase activity (setting [3]) was 100 to 1000 nM; with Gli-luciferase activity (setting [4]) it was 100 to 1000 nM; in assay [1] it was less than 100 nM; in assay [2] it was less than 100 nM.
Regarding `NS(=O)(=O)c1ccc(N2CCN(c3nnc(Cc4ccccc4)c4ccccc34)CC2)nc1` [Example 132], the IC50 with Gli-luciferase activity (setting [3]) was 100 to 1000 nM; in the assay with Gli-luciferase activity (setting [4]), less than 100 nM; in assay [1], less than 100 nM; in assay [2], less than 100 nM.
Turning to `O=S(=O)(c1ccc(N2CCN(c3nnc(Cc4ccccc4)c4ccccc34)CC2)nc1)N1CCCC1` [Example 133], the IC50 with Gli-luciferase activity (setting [3]) is 100 to 1000 nM; in the assay on Gli-luciferase activity (setting [4]) it was less than 100 nM; in assay [1], 100 to 1000 nM; in assay [2] it was 100 to 1000 nM.
As for `CC(=O)c1ccc(N2CCN(c3nnc(Cc4ccccc4)c4ccccc34)CC2)nc1` [Example 134], the IC50 (in the assay with Gli-luciferase activity (setting [3]); with Gli-luciferase activity (setting [4]); in assay [1]; in assay [2]) was less than 100 nM in each case.
Regarding `OC1(c2ccc(N3CCN(c4nnc(Cc5ccccc5)c5ccccc45)CC3)nc2)CC1` [Example 135], the IC50 in the assay with Gli-luciferase activity (setting [3]) was 100 to 1000 nM; in the assay on Gli-luciferase activity (setting [4]) it was less than 100 nM; in assay [1] it was less than 100 nM; in assay [2], less than 100 nM.
On to `COC(=O)c1cnc(N2CCN(c3nnc(Cc4ccccc4)c4ccccc34)CC2)cc1C(F)(F)F` [Example 136], for which the IC50 with Gli-luciferase activity (setting [3]) is 100 to 1000 nM; in the assay on Gli-luciferase activity (setting [4]) it was less than 100 nM; in assay [1] it was less than 100 nM; in assay [2], less than 100 nM.
For `CCOC(=O)c1cnc(N2CCN(c3nnc(Cc4ccccc4)c4ccccc34)CC2)nc1C(F)(F)F` [Example 137], the IC50 (in the assay on Gli-luciferase activity (setting [3]); in the assay on Gli-luciferase activity (setting [4]); in assay [1]; in assay [2]) was less than 100 nM in each case.
Consider `COC(=O)c1cnc(N2CCN(c3nnc(Cc4ccccc4)c4ccccc34)CC2)cn1` [Example 138], for which the IC50 with Gli-luciferase activity (setting [3]) is 100 to 1000 nM; with Gli-luciferase activity (setting [4]), less than 100 nM; in assay [1], less than 100 nM; in assay [2] it was less than 100 nM.
With `COC(=O)c1ccc(N2CCN(c3nnc(Cc4ccccc4)c4ccccc34)CC2)nn1` [Example 139], the IC50 with Gli-luciferase activity (setting [3]) was 1000 to 10000 nM; in the assay with Gli-luciferase activity (setting [4]) it was 100 to 1000 nM; in assay [1], less than 100 nM; in assay [2], less than 100 nM.
Turning to `C[C@@H]1CN(c2nnc(Cc3ccccc3)c3ccccc23)CCN1c1ccc(C#N)cn1` [Example 142, 6-[(R)-4-(4-Benzyl-phthalazin-1-yl)-2-methyl-piperazin-1-yl]-nicotinonitrile], the IC50 in the assay with Gli-luciferase activity (setting [3]) was 100 to 1000 nM; with Gli-luciferase activity (setting [4]), less than 100 nM; in assay [1], less than 100 nM; in assay [2], less than 100 nM.
In the case of `C[C@H]1CN(c2nnc(Cc3ccccc3)c3ccccc23)CCN1c1ccc(C#N)cn1` [Example 143, 6-[(S)-4-(4-Benzyl-phthalazin-1-yl)-2-methyl-piperazin-1-yl]-nicotinonitrile], the IC50 in the assay on Gli-luciferase activity (setting [3]) is 100 to 1000 nM; in the assay with Gli-luciferase activity (setting [4]), less than 100 nM; in assay [1], less than 100 nM; in assay [2], less than 100 nM.
For `CCOC(=O)c1ccc(N2CCN(c3nnc(Cc4ccccc4)c4ccccc34)C[C@H]2C)nc1` [Example 144, 6-[(R)-4-(4-Benzyl-phthalazin-1-yl)-2-methyl-piperazin-1-yl]-nicotinic acid ethyl ester], the IC50 is 100 to 1000 nM in the assay on Gli-luciferase activity (setting [3]), less than 100 nM with Gli-luciferase activity (setting [4]), less than 100 nM in assay [1] and less than 100 nM in assay [2].
Consider `CCOC(=O)c1cnc(N2CCN(c3nnc(Cc4ccccc4)c4ccccc34)C[C@H]2C(=O)OC)nc1C(F)(F)F` [Example 147, 2-[(S)-4-(4-Benzyl-phthalazin-1-yl)-2-methoxycarbonyl-piperazin-1-yl]-4-trifluoromethyl-pyrimidine-5-carboxylic acid ethyl ester], for which the 50% inhibitory concentration (IC50) in the assay with Gli-luciferase activity (setting [3]) was 1000 to 10000 nM; in the assay on Gli-luciferase activity (setting [4]), 100 to 1000 nM; in assay [1], 100 to 1000 nM; in assay [2], less than 100 nM.
Take `CC(C)(O)c1cnc(N2CCN(c3nnc(Cc4ccccc4)c4ccccc34)CC2)cc1C(F)(F)F` [Example 148]: the IC50 (in the assay with Gli-luciferase activity (setting [3]); in the assay with Gli-luciferase activity (setting [4]); in assay [1]; in assay [2]) was less than 100 nM each time.
As for `CC(C)(O)c1cnc(N2CCN(c3nnc(Cc4ccccc4)c4ccccc34)CC2)nc1C(F)(F)F` [Example 149], the IC50 (in the assay with Gli-luciferase activity (setting [3]); in the assay with Gli-luciferase activity (setting [4]); in assay [1]; in assay [2]) was less than 100 nM each time.
In the case of `CC(C)(O)c1cnc(N2CCN(c3nnc(Cc4ccccc4)c4ccccc34)CC2)cn1` [Example 150], the IC50 (in the assay with Gli-luciferase activity (setting [3]); with Gli-luciferase activity (setting [4]); in assay [1]; in assay [2]) was less than 100 nM in each case.
In the case of `CC(C)(O)c1cnc(N2CCN(c3nnc(Cc4ccccc4)c4ccccc34)CC2)nc1` [Example 151], the IC50 with Gli-luciferase activity (setting [3]) is 100 to 1000 nM; in the assay with Gli-luciferase activity (setting [4]) it was less than 100 nM; in assay [1] it was less than 100 nM; in assay [2], less than 100 nM.
Consider `CC(C)(O)c1ccc(N2CCN(c3nnc(Cc4ccccc4)c4ccccc34)CC2)nn1` [Example 152], for which the 50% inhibitory concentration (IC50) is 100 to 1000 nM in the assay on Gli-luciferase activity (setting [3]), less than 100 nM in the assay with Gli-luciferase activity (setting [4]), less than 100 nM in assay [1] and 100 to 1000 nM in assay [2].

The term IC50 denotes the concentration at which inhibition is half-maximal.
